Results as given in patent publication US20150306090A1, “ORALLY ADMINISTERED MEDICAL COMPOSITION” (ASTELLAS PHARMA INC., priority 2012, published 2015).
Values after ≈ are worked out from the molar mass of the structure shown.

Test: physchem
Format: physicochemical
Source text: Further, the current product (Vesicare (registered trademark)) has been placed on the market, as a drug-immediate-release formulation. Furthermore, although the active ingredient is not the same, a bi-layered tablet comprising a modified release portion containing tamsulosin or a pharmaceutically acceptable salt thereof, and an immediate release portion containing solifenacin or a pharmaceutically acceptable salt thereof, is known (Patent literature 7).

solubility (pH 6.8, aqueous buffer): 430 mg/mL (≈ 1190 mM)
solubility (water): 610 mg/mL (≈ 1680 mM)
Compound: O=C(O[C@H]1CN2CCC1CC2)N1CCc2ccccc2[C@@H]1c1ccccc1 [solifenacin, (R)-quinuclidin-3-yl (S)-1-phenyl-1,2,3,4-tetrahydroisoquinoline-2-carboxylate]
